Measurements reported in US20010041801A1, “Water soluble fullerenes with antiviral activity” (The Regents of the University of California, priority 1994, published 2001).
“And” between values parts separate entries of the source, which are not always exact repeats. Equal values may be shown once. “Also recorded” adds a separate entry of the source. Read-outs that look alike come from different tables or passages of the source.

Key:
HIV-1 protease (HIVP) = target: T1, HIV-1 protease (HIVP) (Human immunodeficiency virus type 1 group M subtype B, UniProt P04585); test: Inhibition of HIV-1 protease, HPLC assay with kinetic analysis; assay type: biochemical
T1 construct: HIV produces a small, dimeric aspartyl protease which specifically cleaves the polyprotein precursors
Protocol: The ability of compound 2c to inhibit the HIVP was assayed with an HPLC method as described in R. L DesJarlais, et al., Proc. Natl. Acad. Sci U.S.A., 87:6644-6648, 1990. […] Assays were performed in buffer containing 50 mM NaAc pH 5.5, 1.0 M NaCl, 5% glycerol, 1% DMSO, and 2 mM EDTA. Inhibitor was preincubated with ≈0.05 μg of enzyme for 5 minutes at which time the reaction was initiated by addition of substrate. The reaction was quenched at <15% product formation by the addition of 15 μL of 10% TFA. The cleavage products of the substrate peptide H-Lys-Ala-Arg-Val-Tyr-p-nitro-Phe-Glu-Ala-Ile-NH2 (made by Bachem, Philadelphia, Pa.) were assayed by HPLC using a 10-40% (acetonitrile, 0.1% TFA): (water, 0.1% TFA) gradient over 30 minutes at 1 mL/minute. Product was quantitated by integration of peak areas followed by comparison to product standard curves.
Determination of kinetic constants was done with the program KinetAsyst (IntelliKinetics) by fitting of the data to the equation […]] which describes competitive inhibition.

[1] = Cytotoxicity in uninfected PBMC; assay type: cell-based, human; conditions: human, uninfected PBMC; thymidine uptake day 2 and cell counts day 6
PBMC = test: Cytotoxicity in uninfected PBMC; assay type: cell-based, human; conditions: b68: up to 100 μM
[2] = Cytotoxicity in Vero cells; assay type: cell-based; conditions: African green monkey, Vero cells; day 3
Vero cells = test: Cytotoxicity in Vero cells; assay type: cell-based; conditions: b68: up to 100 μM
[3] = Cytotoxicity in CEM cells; assay type: cell-based; conditions: human, CEM cells; cell counts on day 6
HIV-1 RT = HIV-1 RT (Human immunodeficiency virus type 1 group M subtype B, UniProt P04585); test: Inhibition of recombinant p66/51 HIV-1 RT, poly(rA)n.oligo(T)12-18 template-primer; assay type: biochemical; conditions: IC50 Polymerases: HIV-1 RT, cell-free; AZT-5′-triphosphate used for AZT
Protocol: The compound was also evaluated for its inhibitory effect on recombinant p66/51 HIV-1 RT by using poly(rA)n.oligo(T)12-18 as the template-primer as described in Schinazi, et al. (1992, supra). Compound 2c was active against this enzyme, with a median inhibitory concentration (1C50) of 4.6 μM. This value was of the same order of magnitude as that noted for the antiviral assays (TABLE 3). […] AZT-5′ triphosphate and phosphonoformate (PFA), used as positive controls, were effective and selective against HIV-1 RT.

HIV-1LAI = test: Virus inactivation assay with cell-free virus; assay type: cell-based; conditions: 5 to 25 μM; cell-free virus incubated 2 hours at 37° C.; RT assay day 6
Protocol: Cell culture evaluation techniques well known in the art can also be used to determine the antiviral and antivirucidal properties of the compounds of this invention. For instance about 200 50% tissue culture infective doses of the virus to be tested and 2 ml of the compound to be tested are incubated for 2 hours at 37° C. After incubation, a growth medium is added to each tube and the tube is centrifuged at about 40,000 rpm for 30 minutes at 4° C. The supernatant is removed and the virus pellet is resuspended in fresh medium. The virions are added to human PBMC that has been stimulated for 2 days with phytohemagglutinin in 25 cm^2 flasks in a total of 10 ml of growth medium. After about six days, residual virus in the supernatant are quantitated by an RT assay such as that described by R. F. Schinazi, et al., Antimicrob. Agents Chemother., 36:2423-2431, 1992, or in Current Protocols in Molecular Biology, Ed. by F. M. Ausubel, Current Protocols, Vol. 1, §9.13.3 and in Example 8, Table 2 below.
To confirm these findings, inactivation studies with HIV-1LAI were performed. […] On day 6, residual virus in the supernatant was quantitated by an RT assay, as described previously (R. F. Schinazi, et al., Antimicrob. Agents Chemother., 36:2423-2431, 1992). […]

HIV-1G910-6 = test: microbe, parasite or virus in culture; assay type: cell-based
From the text: The availability of AZT-resistant and -susceptible viruses allowed us to evaluate the compounds of this invention for their susceptibilities to these viruses in acutely infected PBMC in two experiments. […] In the same assay, the EC50 for TIBO [(+)-(5s)-4,5,6,7-tetrahydro-5methyl-6-(3-methyl-2-butenyl)imidazo(4,5,1-jk)(1,4)benzodiazepin-2(1 H)-thione] R82150 increased >500-fold (data not shown).

[4] = system: nevirapine (BI-RG587)-resistant HIV-1; test: Susceptibility of nevirapine-resistant HIV-1; assay type: cell-based; conditions: Human immunodeficiency virus 1, read-out: EC50 against nevirapine-resistant HIV-1
[5] = target: T2, recombinant HIV-1 protease (Human immunodeficiency virus type 1 group M subtype B, UniProt P04585); test: Antiprotease assay, method similar to Ido et al.; assay type: biochemical
T2 construct: HIV produces a small, dimeric aspartyl protease which specifically cleaves the polyprotein precursors
Protocol: Routine protocols can be followed to determine whether a derivatized buckministerfullerene compound has virucidal properties. […] This method is similar to that described by Ido, et al., J. Biol. Chem., 266:24359-24366, 1991). Inhibition is time dependent, and preincubation with the inhibitor results in greater enzyme inhibition, indicating a slow binding process
Compound 2c also has antiprotease activity. […] The method used for the assay was similar to that described by Ido, et al., J. Biol. Chem., 266:24359-24366, 1991).

O=C(O)CCC(=O)NCCc1ccc(C2(c3ccc(CCNC(=O)CCC(=O)O)cc3)C34c5c6c7c8c9c%10c(c%11c%12c3c3c5c5c%13c6c6c7c7c9c9c%14c%10c%10c%11c%11c%12c%12c3c3c5c5c%13c%13c6c6c7c9c7c9c%14c%10c%10c%11c%11c%12c3c3c5c5c%13c6c7c6c9c%10c%11c3c56)C824)cc1 [Compound 2c, bis(monosuccinimide) derivative of p,p′-bis(2-aminoethyl)diphenyl-C60]
Ki (HIV-1 protease (HIVP)): 5.3 µM | mode of inhibition (HIV-1 protease (HIVP); kinetic analysis of HIVP): competitive | IC50 [1]: > 100 µM | cytotoxicity in uninfected PBMC (words) (PBMC): No cytotoxicity; also recorded: noncytotoxic | cytotoxicity in uninfected PBMC (words) (PBMC; listed as bis(monosuccinimide) derivative of p,p′-bis(2-aminoethyl)-diphenyl): no cytotoxicity | IC50 at 3 days [2]: > 100 µM | cytotoxicity in Vero cells (Vero cells): No cytotoxicity; also recorded: noncytotoxic | IC50 at 6 days [3]: > 100 µM | IC50 (HIV-1 RT): 4.6 µM and ~5 µM | reduction of virus infectivity relative to untreated control (HIV-1LAI): more than 95% | EC50 (HIV-1G910-6; Human immunodeficiency virus 1, PBMC, read-out: EC50 against AZT-resistant HIV-1, acutely infected PBMC / lymphocytes): 2800 nM | EC50 (HIV-1G910-6; read-out: EC50 against AZT-resistant HIV-1, acutely infected PBMC / lymphocytes): 3000 nM | EC50 [4]: 8.7 µM | IC50 [5]: 2000 nM
